We go through 25 compounds from ChEMBL document CHEMBL5608141, “Identification of compartment-specific drug sensitivities in CRC organoid-stroma co-cultures” (2024).

Holding throughout (type): functional, Homo sapiens
Common to all, as to parameters: dose or concentration left out as unconfirmed

The test system of assay [1] is Colon cancer organoid. Nature of the assay: Identification of compartment-specific drug sensitivities in O06 CRC organoid-stroma F06 CAF co-cultures. Organoid is transduced with Lucferase2-P2A-EGFP lentivirus, fibroblast with Renilla-dsRed lentivirus. Dual-Glo Luciferase assay is used to report viability data.
The subject of assay [2] is Colon cancer organoid. Briefly: Identification of compartment-specific drug sensitivities in O14 CRC organoid-stroma F14 CAF co-cultures. Organoid is transduced with Lucferase2-P2A-EGFP lentivirus, fibroblast with Renilla-dsRed lentivirus. Dual-Glo Luciferase assay is used to report viability data.
Assay [3] relates to Colon cancer organoid. Briefly: Identification of compartment-specific drug sensitivities in O20 CRC organoid-stroma F20 CAF co-cultures. Organoid is transduced with Lucferase2-P2A-EGFP lentivirus, fibroblast with Renilla-dsRed lentivirus. Dual-Glo Luciferase assay is used to report viability data.
[4] abbreviates: Transduced with Lucferase2-P2A-EGFP lentivirus.
[5] abbreviates: Transduced with Renilla-dsRed lentivirus.

On to `CN1CCN(c2ccc(-c3cccc(CN4CCOCC4)c3)cc2NC(=O)c2c[nH]c(=O)cc2C(F)(F)F)CC1`, for which the “Cell Viability” value amounted to 91.1397% in assay [1] (setting [4]); 122.014% in assay [1] (setting [5]); 95.9628% in assay [2] (setting [4]); 85.2187% in assay [2] (setting [5]); 82.8822% in assay [3] (setting [4]); 116.555% in assay [3] (setting [5]).
In the case of `O=C(NCC(=O)N1CCCC1)Nc1ccc2cnccc2c1`, the “Cell Viability” value was determined as 80.3687% in assay [1] (setting [4]); 124.064% in assay [1] (setting [5]); 110.898% in assay [2] (setting [4]); 98.9067% in assay [2] (setting [5]); 121.558% in assay [3] (setting [4]); 100.064% in assay [3] (setting [5]).
For the compound `CC(C)(O)c1cncc(-c2nc3ccc(F)cc3n2C2CC2)c1` [MSD-CYP11B2], the “Cell Viability” value amounted to 83.611% in assay [1] (setting [4]); 134.058% in assay [1] (setting [5]); 89.9575% in assay [2] (setting [4]); 101.392% in assay [2] (setting [5]); 80.182% in assay [3] (setting [4]); 128.543% in assay [3] (setting [5]).
Take `N#Cc1cnc(Nc2cc(NC[C@H]3CNCCO3)c(C(F)(F)F)cn2)cn1` [SRA-737]: the “Cell Viability” value in assay [1] (setting [4]) worked out at 89.9461%; in assay [1] (setting [5]), 120.027%; in assay [2] (setting [4]) it was 25.2627%; in assay [2] (setting [5]), 122.808%; in assay [3] (setting [4]) it was 103.573%; in assay [3] (setting [5]), 133.202%.
On to `CC(C)S(=O)(=O)c1ccc2nccc(Nc3ccc4scnc4c3)c2c1`, for which the “Cell Viability” value in assay [1] (setting [4]) turned out to be 84.0973%; in assay [1] (setting [5]), 95.5761%; in assay [2] (setting [4]), 128.948%; in assay [2] (setting [5]), 98.4032%; in assay [3] (setting [4]), 147.82%; in assay [3] (setting [5]) it was 98.2209%.
In the case of `O=C(NOC[C@H](O)CO)c1ccc(F)c(F)c1Nc1ccc(I)cc1F` [MIRDAMETINIB], the “Cell Viability” value in assay [1] (setting [4]) is on record as 8.8965%; in assay [1] (setting [5]) it was 49.9042%; in assay [2] (setting [4]), 7.045%; in assay [2] (setting [5]), 23.0385%; in assay [3] (setting [4]), 3.902%; in assay [3] (setting [5]), 83.5811%.
Regarding `C[C@@H]1CCN(C(=O)CC#N)C[C@@H]1N(C)c1ncnc2[nH]ccc12.O=C(O)CC(O)(CC(=O)O)C(=O)O` [TOFACITINIB CITRATE], the “Cell Viability” value in assay [1] (setting [4]) stood at 105.115%; in assay [1] (setting [5]) it was 91.9737%; in assay [2] (setting [4]), 83.3835%; in assay [2] (setting [5]), 105.446%; in assay [3] (setting [4]) it was 113.321%; in assay [3] (setting [5]) it was 86.9545%.
In the case of `Cc1ccc(-c2cnc([C@@]3(O)CC[C@H](C(=O)O)C(C)(C)C3)s2)cc1Nc1cccc(C(F)(F)F)n1` [MRL-SYKi-NC], the “Cell Viability” value in assay [1] (setting [4]) was determined as 119.382%; in assay [1] (setting [5]), 86.5869%; in assay [2] (setting [4]), 134.887%; in assay [2] (setting [5]), 107.343%; in assay [3] (setting [4]) it was 106.503%; in assay [3] (setting [5]), 131.597%.
For the compound `COc1cc(C#N)ccc1S(=O)(=O)Nc1ccc2c(c1)cc(C)c(=O)n2C`, the “Cell Viability” value in assay [1] (setting [4]) is 94.9001%; in assay [1] (setting [5]), 111.598%; in assay [2] (setting [4]), 105.069%; in assay [2] (setting [5]), 87.2253%; in assay [3] (setting [4]) it was 96.9289%; in assay [3] (setting [5]) it was 124.149%.
For `COc1ccc(CCc2nc3cc(-c4c(C)noc4C)ccc3n2C[C@H](C)N2CCOCC2)cc1Cl`, the “Cell Viability” value in assay [1] (setting [4]) is on record as 78.634%; in assay [1] (setting [5]), 97.126%; in assay [2] (setting [4]), 147.618%; in assay [2] (setting [5]), 121.055%; in assay [3] (setting [4]) it was 96.1019%; in assay [3] (setting [5]), 133.846%.
For `Cc1ccc2[nH]c(CNCCCc3ccncc3)cc(=O)c2c1` [UCSF924NC], the “Cell Viability” value is listed as 92.2965% in assay [1] (setting [4]); 82.507% in assay [1] (setting [5]); 107.168% in assay [2] (setting [4]); 100.112% in assay [2] (setting [5]); 121.808% in assay [3] (setting [4]); 109.302% in assay [3] (setting [5]).
As for `CCC(=O)N1CCOc2c(cc(-c3ccc(OC)c(OC)c3)cc2OCC2CCCN(C)C2)C1` (stereo not given), the “Cell Viability” value in assay [1] (setting [4]) came to 113.999%; in assay [1] (setting [5]), 135.091%; in assay [2] (setting [4]), 132.169%; in assay [2] (setting [5]), 110.752%; in assay [3] (setting [4]) it was 85.7121%; in assay [3] (setting [5]), 123.175%.
In the case of `Cc1nc(N2CC[C@H](O)C2)ncc1-c1cc(C(F)(F)F)cc2[nH]ncc12`, the “Cell Viability” value in assay [1] (setting [4]) turned out to be 124.32%; in assay [1] (setting [5]), 144.84%; in assay [2] (setting [4]) it was 76.9456%; in assay [2] (setting [5]), 116.548%; in assay [3] (setting [4]), 47.2711%; in assay [3] (setting [5]), 153.575%.
On to `O=C(Nc1cccnn1)N1CC(C/C=C/c2cncc(Oc3ccc(C(F)(F)F)cn3)n2)C1`, for which the “Cell Viability” value in assay [1] (setting [4]) is on record as 130.234%; in assay [1] (setting [5]) it was 92.9489%; in assay [2] (setting [4]), 132.074%; in assay [2] (setting [5]), 108.992%; in assay [3] (setting [4]), 97.9448%; in assay [3] (setting [5]), 112.944%.
As for `O=C(O)c1ccc(-c2coc3ncc(-c4ccccc4)cc23)cc1Cl`, the “Cell Viability” value in assay [1] (setting [4]) is given as 84.9927%; in assay [1] (setting [5]), 102.883%; in assay [2] (setting [4]) it was 182.141%; in assay [2] (setting [5]), 68.2046%; in assay [3] (setting [4]), 189.357%; in assay [3] (setting [5]), 126.188%.
`CCC(=N\O)/C(C)=C/c1ccc(F)c(C)c1` [A-226]: the “Cell Viability” value in assay [1] (setting [4]) came to 127.527%; in assay [1] (setting [5]), 100.08%; in assay [2] (setting [4]), 131.471%; in assay [2] (setting [5]) it was 101.092%; in assay [3] (setting [4]) it was 93.31%; in assay [3] (setting [5]) it was 115.263%.
Turning to `NS(=O)(=O)c1cc(NC(=O)Cc2ccccc2)ccc1Oc1cccc(Cl)c1` [BAY-1797], the “Cell Viability” value in assay [1] (setting [4]) is 89.5842%; in assay [1] (setting [5]) it was 298.319%; in assay [2] (setting [4]), 92.6745%; in assay [2] (setting [5]) it was 115.956%; in assay [3] (setting [4]), 89.0927%; in assay [3] (setting [5]), 86.996%.
As for `Cn1c(C2(NC(=O)c3ccc4c(C5CCCC5)c(-c5ncc(Br)cn5)n(C)c4c3)CCC2)nc2ccc(/C=C/C(=O)O)cc21` [DELEOBUVIR], the “Cell Viability” value in assay [1] (setting [4]) is recorded as 117.892%; in assay [1] (setting [5]) it was 131.89%; in assay [2] (setting [4]), 99.2157%; in assay [2] (setting [5]), 60.0807%; in assay [3] (setting [4]), 79.9036%; in assay [3] (setting [5]), 130.288%.
Take `COc1cccc2c1C(=O)c1c(O)c3c(c(O)c1C2=O)CC(O)(C(=O)CO)CC3OC1CC(N)C(O)C(C)O1.Cl` (stereo not given): the “Cell Viability” value in assay [1] (setting [4]) is listed as 14.9439%; in assay [1] (setting [5]), 235.56%; in assay [2] (setting [4]) it was 3.454%; in assay [2] (setting [5]) it was 89.9373%; in assay [3] (setting [4]), 5.3877%; in assay [3] (setting [5]) it was 237.178%.
Take `Cc1c(NC(=O)c2cc(C(N)=O)nc3cc(F)ccc23)c(C(F)(F)F)nn1Cc1ccc(C#N)cc1` [BAY-876]: the “Cell Viability” value in assay [1] (setting [4]) is 11.8045%; in assay [1] (setting [5]), 337.56%; in assay [2] (setting [4]) it was 20.1463%; in assay [2] (setting [5]), 59.1997%; in assay [3] (setting [4]), 13.842%; in assay [3] (setting [5]) it was 190.785%.
`COc1cc2c(cc1OCCCN1CCCC1)N=C(N)C21CCC1`: the “Cell Viability” value turned out to be 84.9948% in assay [1] (setting [4]); 83.704% in assay [1] (setting [5]); 87.6121% in assay [2] (setting [4]); 63.8775% in assay [2] (setting [5]); 76.3645% in assay [3] (setting [4]); 100.254% in assay [3] (setting [5]).
As for `O=C1NC(c2ccccn2)Sc2ccccc21` (stereo not given) [BTZO-4], the “Cell Viability” value turned out to be 80.8326% in assay [1] (setting [4]); 70.0316% in assay [1] (setting [5]); 106.577% in assay [2] (setting [4]); 104.892% in assay [2] (setting [5]); 109.35% in assay [3] (setting [4]); 85.8309% in assay [3] (setting [5]).
Consider `COc1cc(OC)cc(-c2noc(N3CCN(C)C4(CCN(c5ccccc5)CC4)C3)n2)c1`, for which the “Cell Viability” value in assay [1] (setting [4]) came to 67.7845%; in assay [1] (setting [5]), 115.277%; in assay [2] (setting [4]), 135.567%; in assay [2] (setting [5]), 106.85%; in assay [3] (setting [4]), 90.427%; in assay [3] (setting [5]), 110.491%.
`CN(C)C(=O)/C(C#N)=C/c1ccc(-c2nc3cnc4[nH]ccc4c3n2C2CCCCC2)o1`: the “Cell Viability” value in assay [1] (setting [4]) was determined as 57.9428%; in assay [1] (setting [5]) it was 82.2998%; in assay [2] (setting [4]), 107.956%; in assay [2] (setting [5]) it was 74.8679%; in assay [3] (setting [4]) it was 75.2682%; in assay [3] (setting [5]), 130.215%.
As to `CNCc1ccccc1-c1csc([C@@H](C)Nc2nc(C)nc3cc(OC)c(OC)cc23)c1` [BAY-293], the “Cell Viability” value in assay [1] (setting [4]) was found to be 41.2905%; in assay [1] (setting [5]), 141.656%; in assay [2] (setting [4]) it was 65.4303%; in assay [2] (setting [5]), 97.5193%; in assay [3] (setting [4]), 78.2703%; in assay [3] (setting [5]), 145.24%.
